In US5663207A, “Gem-dichlorocyclopropanes as antitumor agents” (priority 1995, dated 1997):

What was measured:
[1] = test system: Immature Swiss-Webster female mice (estradiol-stimulated uterine weight); assay: Antiuterotrophic assay for antiestrogenic activity in immature mice; format: in vivo, mouse (Swiss-Webster); settings: 0.4, 0.8, and 1.6 mg; three-day assay; estradiol 0.03 μg
Description: The biological evaluation of the test compounds consisted of the in vitro rat cytosolic estradiol receptor binding assay, the in vivo immature mouse uterotrophic (estrogenic) and antiuterotrophic (antiestrogenic) assays, and the in vitro suppression of the proliferation of the ER positive MCF-7 human breast cancer cell line.
Vital-free immature female Swiss-Webster mice were obtained at 17-19 days of age from Sasco weighing 8-10 g, and were used in the uterotrophic and antiuterotrophic assays. Immature female Sprague-Dawley rats, obtained at 17-19 days of age from Sasco, weighing 28-33 g, were used as sources of uteri for the estradiol receptor binding assay. Animals were housed in wire topped polycarbonate cages at six animals per cage, with the environment controlled at 25° C. and a 12 h light/dark cycle. […]
The antiestrogenic assay was conducted as described for the estrogenic assay, except that each mouse in the cyclopropyl treatment groups received a standard stimulating dose of estradiol (0.03 μg) in sesame oil (0.1 mL) and the test compounds or MER 25 were administered in isopropyl myristate (0.05 mL) in a dosage range of 0.4, 0.8 and 1.6 mg (total dose). […] Antiestrogenic activity was measured as a decrease in the estradiol-stimulated […] response in groups that received both the test compound and estradiol as compared to the group treated only with estradiol.

estrogen receptor = target: T1, estrogen receptor (Rattus norvegicus, UniProt P06211); settings: cited from earlier work
T1 construct: ovariectomized rat uterine cytosolic estrogen receptor preparation; from tissue; host or cells: uterine cytosol of ovariectomized Sprague-Dawley rats (immature rats from Sasco are named as uterus source, mature ovariectomized rats)
T1 sequence (P06211 1-600): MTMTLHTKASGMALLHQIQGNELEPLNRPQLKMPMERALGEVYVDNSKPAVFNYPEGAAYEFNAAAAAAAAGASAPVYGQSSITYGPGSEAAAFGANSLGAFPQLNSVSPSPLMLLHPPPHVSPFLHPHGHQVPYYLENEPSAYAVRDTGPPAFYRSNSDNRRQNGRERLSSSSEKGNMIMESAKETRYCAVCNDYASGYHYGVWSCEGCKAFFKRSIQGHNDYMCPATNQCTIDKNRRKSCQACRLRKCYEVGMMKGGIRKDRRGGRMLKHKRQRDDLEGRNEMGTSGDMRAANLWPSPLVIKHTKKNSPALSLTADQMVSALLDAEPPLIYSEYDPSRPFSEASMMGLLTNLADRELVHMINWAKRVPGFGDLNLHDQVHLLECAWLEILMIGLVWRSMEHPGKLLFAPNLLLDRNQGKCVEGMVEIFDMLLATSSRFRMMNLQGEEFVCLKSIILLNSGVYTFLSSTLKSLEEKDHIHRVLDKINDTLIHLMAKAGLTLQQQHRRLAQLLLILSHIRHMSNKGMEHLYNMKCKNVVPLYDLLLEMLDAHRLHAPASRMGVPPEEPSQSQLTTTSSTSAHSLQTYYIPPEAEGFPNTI

CCN(CC)CCOc1ccc(C(O)(Cc2ccc(OC)cc2)c2ccccc2)cc1 (stereo not drawn) [MER-25]
antiestrogenic activity: effect on estradiol-induced uterine weight gain (in words) [1]: significant reduction in estradiol-induced uterotrophic activity
RBA (relative binding affinity) (estrogen receptor; relative to estradiol = 100%, footnote e, Day et al. (1991)): --^e (Less than 0.01%.)
[3H]-estradiol displacement curve (in words) (estrogen receptor; standards, Day et al., 1991): very weak dose-related displacement
